Reference: patent US20240262795A1, “PYRAZINE COMPOUNDS AS INHIBITORS OF FLT3” (Biomea Fusion, Inc., priority 2021, published 2024)

target: T1, WT FLT3 (Homo sapiens, UniProt P36888); experiment: WT FLT3 Lance Ultra TR-FRET kinase assay; format: biochemical
T1 construct: purchased Invitrogen PR4666C
T1 sequence (P36888 564-993 limits assumed): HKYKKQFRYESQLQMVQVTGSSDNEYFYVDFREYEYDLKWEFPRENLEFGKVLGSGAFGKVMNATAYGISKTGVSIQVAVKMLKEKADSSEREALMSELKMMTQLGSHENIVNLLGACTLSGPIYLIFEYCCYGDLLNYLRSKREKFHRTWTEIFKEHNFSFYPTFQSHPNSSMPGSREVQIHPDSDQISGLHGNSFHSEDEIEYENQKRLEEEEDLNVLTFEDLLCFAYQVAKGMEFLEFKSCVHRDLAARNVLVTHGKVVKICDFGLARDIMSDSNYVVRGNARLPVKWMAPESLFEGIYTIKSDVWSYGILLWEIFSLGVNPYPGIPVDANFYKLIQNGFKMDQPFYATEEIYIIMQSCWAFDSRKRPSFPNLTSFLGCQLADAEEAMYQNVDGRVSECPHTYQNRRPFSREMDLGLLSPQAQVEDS
Procedure, shortened: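 Lance Ultra TR-FRET with 50 nM ULight-JAK-1 (Tyr1023) peptide, Eu-anti-phosphotyrosine (PT66) detection, in HEPES pH 7.5 buffer at 23° C, 30 min enzyme/compound preincubation. WT: 0.5 nM enzyme, 100 μM ATP, 30 min; ITD: 0.0625 nM, 50 μM ATP, 60 min. IC50 by four-parameter fit of 11-point 3× dilutions.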

Row | SMILES | IC50
1 | CCc1nc(C(N)=O)c(Nc2cccc(CCNC(=O)[C@H](C)N(C)C(=O)/C=C/CN(C)C)c2)nc1N(C)C(C)C [Compound 204, (S,E)-3-((3-(2-(2-(4-(dimethylamino)-N-methylbut-2-enamido)propanamido)ethyl)phenyl)amino)-6-ethyl-5-(isopropyl(methyl)amino)pyrazine-2-carboxamide] | 0.101 to 0.2 nM
2 | CCc1nc(C(N)=O)c(Nc2cccc(CCNC(=O)[C@H](C)N(C)C(=O)/C=C/CN(C)C)c2)nc1NC(C)C [Compound 205, (S,E)-3-((3-(2-(2-(4-(dimethylamino)-N-methylbut-2-enamido)propanamido)ethyl)phenyl)amino)-6-ethyl-5-(isopropylamino)pyrazine-2-carboxamide] | 0.101 to 0.2 nM
3 | Cc1nc(C(N)=O)c(Nc2cccc(CCNC(=O)[C@H](C)N(C)C(=O)/C=C/CN(C)C)c2)nc1N(C)C(C)C [Compound 232, (S, E)-3-((3-(2-(2-(4-(dimethylamino)-N-methylbut-2-enamido)propanamido)ethyl)phenyl)amino)-5-(isopropyl (methyl)amino)-6-methylpyrazine-2-carboxamide] | 0.501 to 1 nM
4 | Cc1nc(C(N)=O)c(Nc2cccc(CCNC(=O)CN(C)C(=O)/C=C/CN(C)C)c2)nc1N(C)C(C)C [Compound 250, (E)-3-((3-(2-(2-(4-(dimethylamino)-N-methylbut-2-enamido)acetamido)ethyl)phenyl)amino)-5-(isopropyl(methyl)amino)-6-methylpyrazine-2-carboxamide] | 0.201 to 0.5 nM
5 | CCc1nc(C(N)=O)c(Nc2cccc(CCNC(=O)CN(C)C(=O)/C=C/CN(C)C)c2)nc1N(C)CC [Compound 252, (E)-3-((3-(2-(2-(4-(dimethylamino)-N-methylbut-2-enamido)acetamido)ethyl)phenyl)amino)-6-ethyl-5-(ethyl (methyl)amino) pyrazine-2-carboxamide] | 0.201 to 0.5 nM
6 | CCc1nc(C(N)=O)c(Nc2cccc(CCNC(=O)[C@H](C)N(C)C(=O)/C=C/CNC)c2)nc1N(C)C(C)C [Compound 307, (S,E)-6-ethyl-5-(isopropyl(methyl)amino)-3-((3-(2-(2-(N-methyl-4-(methylamino)but-2-enamido)propanamido)ethyl)phenyl)amino)pyrazine-2-carboxamide] | 0.201 to 0.5 nM
7 | CCc1nc(C(N)=O)c(Nc2ccnc(CCNC(=O)[C@H](C)N(C)C(=O)/C=C/CN(C)C)c2)nc1C1CC1 [Compound 310, (S,E)-5-cyclopropyl-3-((2-(2-(2-(4-(dimethylamino)-N-methylbut-2-enamido)propanamido)ethyl)pyridin-4-yl)amino)-6-ethylpyrazine-2-carboxamide] | 0.501 to 1 nM
8 | CCc1nc(C(N)=O)c(Nc2cccc([C@@H](C)CNC(=O)CN(C)C(=O)/C=C/CN3CCC3)c2)nc1C1CC1 [Compound 506, (R,E)-3-((3-(1-(2-(4-(azetidin-1-yl)-N-methylbut-2-enamido)acetamido)propan-2-yl)phenyl)amino)-5-cyclopropyl-6-ethylpyrazine-2-carboxamide] | 0.101 to 0.2 nM

Continued, values first:

Row | IC50 | SMILES
9 | 0.201 to 0.5 nM | CCCc1nc(Nc2cccc([C@@H](C)CNC(=O)CN(C)C(=O)/C=C/CN3CCC3)c2)c(C(N)=O)nc1CC [Compound 507, (R,E)-3-((3-(1-(2-(4-(azetidin-1-yl)-N-methylbut-2-enamido)acetamido)propan-2-yl)phenyl)amino)-6-ethyl-5-propylpyrazine-2-carboxamide]
10 | 0.501 to 1 nM | CCc1nc(Nc2cccc([C@@H](C)CNC(=O)CN(C)C(=O)/C=C/CN3CCC3)c2)c(C(N)=O)nc1CC [Compound 508, (R, E)-3-((3-(1-(2-(4-(azetidin-1-yl)-N-methylbut-2-enamido)acetamido)propan-2-yl)phenyl)amino)-5,6-diethylpyrazine-2-carboxamide]
11 | 0.201 to 0.5 nM | CCc1nc(C(N)=O)c(Nc2cc(F)cc(CCNC(=O)CN(C)C(=O)/C=C/CN3CCC3)c2)nc1C1CC1 [Compound 516, (E)-3-((3-(2-(2-(4-(azetidin-1-yl)-N-methylbut-2-enamido)acetamido)ethyl)-5-fluorophenyl)amino)-5-cyclopropyl-6-ethylpyrazine-2-carboxamide]
12 | 0.501 to 1 nM | CCc1nc(C(N)=O)c(Nc2cccc(CCNC(=O)CN(C)C(=O)/C=C/CN3CCC3)c2)nc1N(C)CC [Compound 516A, (E)-3-((3-(2-(2-(4-(azetidin-1-yl)-N-methylbut-2-enamido)acetamido)ethyl)phenyl)amino)-6-ethyl-5-(ethyl(methyl)amino) pyrazine-2-carboxamide]
13 | 0.201 to 0.5 nM | CCc1nc(C(N)=O)c(Nc2cccc([C@@H](C)CNC(=O)CN(C)C(=O)/C=C/CN3CCC3)c2)nc1N(C)CC [Compound 518, (R,E)-3-((3-(1-(2-(4-(azetidin-1-yl)-N-methylbut-2-enamido)acetamido)propan-2-yl)phenyl)amino)-6-ethyl-5-(ethyl(methyl)amino)pyrazine-2-carboxamide]
14 | 0.201 to 0.5 nM | CCOc1nc(Nc2cccc(CCNC(=O)CN(C)C(=O)/C=C/CN3CCC3)c2)c(C(N)=O)nc1CC [Compound 602, (E)-3-((3-(2-(2-(4-(azetidin-1-yl)-N-methylbut-2-enamido)acetamido)ethyl)phenyl)amino)-5-ethoxy-6-ethylpyrazine-2-carboxamide]
15 | 0.201 to 0.5 nM | CCc1nc(C(N)=O)c(Nc2cccc(CCNC(=O)CN(C)C(=O)/C=C/CN3CCC3)c2)nc1OC(C)C [Compound 603, (E)-3-((3-(2-(2-(4-(azetidin-1-yl)-N-methylbut-2-enamido)acetamido)ethyl)phenyl)amino)-6-ethyl-5-isopropoxypyrazine-2-carboxamide]
16 | 0.201 to 0.5 nM | CCc1nc(C(N)=O)c(Nc2ccnc(CCNC(=O)[C@H](C)N(C)C(=O)/C=C/CN(C)C)c2)nc1N(C)C(C)C [Compound 605, (S, E)-3-((2-(2-(2-(4-(dimethylamino)-N-methylbut-2-enamido)propanamido)ethyl)pyridin-4-yl)amino)-6-ethyl-5-(isopropyl (methyl)amino) pyrazine-2-carboxamide]
